# In ChEMBL document CHEMBL1136454, “Synthesis and biological activity of N-Acylated ornithine analogues of daptomycin” (Bioorg Med Chem Lett, 2003):
# Key:
# Staphylococcus aureus [1] = experiment: Antibacterial activity against methicillin susceptible Staphylococcus aureus ATCC 29213 (MSSA ); type: functional
# Mus musculus = experiment: Antibacterial activity was determined by protection from death of mice infected by methicillin resistant Staphylococcus aureus (MRSA) upon sc administration of compound after 4 hr of post infection; type: functional; details: read-out: PD50
# Staphylococcus aureus [2] = experiment: Antibacterial activity against methicillin resistant Staphylococcus aureus ATCC 43300 (MRSA); type: functional
# Enterococcus faecium = experiment: Antibacterial activity against Enterococcus faecium ATCC 6569; type: functional
# Enterococcus faecalis = experiment: Antibacterial activity against Enterococcus faecalis ATCC 49452; type: functional
# [3] = In vivo Tmax was determined in murine septicemia at dose of 50 mg/kg; type: ADME, organism-based; design: dose 50 mg/kg; details: mouse
# [4] = In vivo Cmax in mice at dose of 50 mg/kg; type: ADME, organism-based; design: dose 50 mg/kg; details: mouse
# [5] = In vivo half life period was determined in murine septicemia at dose of 50 mg/kg; type: ADME, organism-based; design: dose 50 mg/kg; details: mouse
# [6] = In vivo volume distribution (Vd) was determined in murine septicemia at dose of 100 mg/kg; type: ADME, organism-based; design: dose 100 mg/kg; details: mouse
# [7] = In vivo total clearance was determined in murine septicemia at dose of 100 mg/kg; type: ADME, organism-based; design: dose 100 mg/kg; details: mouse, read-out: CLtotal (converted)
# [8] = In vivo Cmax in mice at dose of 100 mg/kg; type: ADME, organism-based; design: dose 100 mg/kg; details: mouse
# [9] = In vivo area under curve (AUC) was determined in murine septicemia at dose of 100 mg/kg; type: ADME, organism-based; design: dose 100 mg/kg; details: mouse
# [10] = In vivo Tmax was determined in murine septicemia at dose of 100 mg/kg; type: ADME, organism-based; design: dose 100 mg/kg; details: mouse
# [11] = In vivo volume distribution (Vd) was determined in murine septicemia at dose of 50 mg/kg; type: ADME, organism-based; design: dose 50 mg/kg; details: mouse
# [12] = In vivo area under curve (AUC) was determined in murine septicemia at dose of 50 mg/kg; type: ADME, organism-based; design: dose 50 mg/kg; details: mouse
# [13] = In vivo total clearance was determined in murine septicemia at dose of 50 mg/kg; type: ADME, organism-based; design: dose 50 mg/kg; details: mouse, read-out: CLtotal (converted)
structure (smiles),measurement,setting,value
CCCCCCCCCC(=O)N[C@@H](Cc1c[nH]c2ccccc12)C(=O)N[C@H](CC(N)=O)C(=O)N[C@@H](CC(=O)O)C(=O)N[C@@H]1C(=O)NCC(=O)N[C@@H](CCCNC(=N)N)C(=O)N[C@@H](CC(=O)O)C(=O)N[C@H](C)C(=O)N[C@@H](CC(=O)O)C(=O)NCC(=O)N[C@H](CO)C(=O)N[C@@H]([C@H](C)CC(=O)O)C(=O)N[C@@H](CC(=O)c2ccccc2N)C(=O)O[C@@H]1C,MIC,Staphylococcus aureus [1],0.78 µg/mL
same,ED50,Mus musculus,0.17 mg/kg
same,MIC,Staphylococcus aureus [2],0.78 µg/mL
same,MIC,Enterococcus faecium,6.25 µg/mL
same,MIC,Enterococcus faecalis,12.5 µg/mL
CCCCCCCCCC(=O)N[C@@H](Cc1c[nH]c2ccccc12)C(=O)N[C@H](CC(N)=O)C(=O)N[C@@H](CC(=O)O)C(=O)N[C@@H]1C(=O)NCC(=O)N[C@@H](CCCNC(=O)C2Cc3c([nH]c4ccccc34)CN2)C(=O)N[C@@H](CC(=O)O)C(=O)N[C@H](C)C(=O)N[C@@H](CC(=O)O)C(=O)NCC(=O)N[C@H](CO)C(=O)N[C@@H]([C@H](C)CC(=O)O)C(=O)N[C@@H](CC(=O)c2ccccc2N)C(=O)O[C@@H]1C (stereo partly specified) [listing 1 of 2 here],Tmax,[3],6 h
same,Cmax,[4],418 µg/mL
same,half-life,[5],> 6 h
CCCCCCCCCC(=O)N[C@@H](Cc1c[nH]c2ccccc12)C(=O)N[C@H](CC(N)=O)C(=O)N[C@@H](CC(=O)O)C(=O)N[C@@H]1C(=O)NCC(=O)N[C@@H](CCCNC(=O)C2Cc3c([nH]c4ccccc34)CN2)C(=O)N[C@@H](CC(=O)O)C(=O)N[C@H](C)C(=O)N[C@@H](CC(=O)O)C(=O)NCC(=O)N[C@H](CO)C(=O)N[C@@H]([C@H](C)CC(=O)O)C(=O)N[C@@H](CC(=O)c2ccccc2N)C(=O)O[C@@H]1C (stereo partly specified) [listing 2 of 2 here],MIC,Staphylococcus aureus [1],0.78 µg/mL
same,ED50,Mus musculus,1.75 mg/kg
same,MIC,Staphylococcus aureus [2],0.78 µg/mL
same,MIC,Enterococcus faecium,3.1 µg/mL
same,MIC,Enterococcus faecalis,12.5 µg/mL
CCCCCCCCCC(=O)N[C@@H](Cc1c[nH]c2ccccc12)C(=O)N[C@H](CC(N)=O)C(=O)N[C@@H](CC(=O)O)C(=O)N[C@@H]1C(=O)NCC(=O)N[C@@H](CCCNC(=O)c2ccccc2N)C(=O)N[C@@H](CC(=O)O)C(=O)N[C@H](C)C(=O)N[C@@H](CC(=O)O)C(=O)NCC(=O)N[C@H](CO)C(=O)N[C@@H]([C@H](C)CC(=O)O)C(=O)N[C@@H](CC(=O)c2ccccc2N)C(=O)O[C@@H]1C [listing 1 of 2 here],Vd,[6],0.23 L/kg
same,clearance,[7],1.1 mL/min/kg
same,Cmax,[8],464 µg/mL
same,AUC,[9],1500 µg·h/mL
same,half-life,[5],2.4 h
same,Tmax,[10],0.5 h
CCCCCCCCCC(=O)N[C@@H](Cc1c[nH]c2ccccc12)C(=O)N[C@H](CC(N)=O)C(=O)N[C@@H](CC(=O)O)C(=O)N[C@@H]1C(=O)NCC(=O)N[C@@H](CCCNC(=O)c2ccccc2N)C(=O)N[C@@H](CC(=O)O)C(=O)N[C@H](C)C(=O)N[C@@H](CC(=O)O)C(=O)NCC(=O)N[C@H](CO)C(=O)N[C@@H]([C@H](C)CC(=O)O)C(=O)N[C@@H](CC(=O)c2ccccc2N)C(=O)O[C@@H]1C [listing 2 of 2 here],MIC,Staphylococcus aureus [1],0.78 µg/mL
same,ED50,Mus musculus,1.1 mg/kg
same,MIC,Staphylococcus aureus [2],1.56 µg/mL
same,MIC,Enterococcus faecium,6.25 µg/mL
same,MIC,Enterococcus faecalis,12.5 µg/mL
CCCCCCCCCC(=O)N[C@@H](Cc1c[nH]c2ccccc12)C(=O)N[C@H](CC(N)=O)C(=O)N[C@@H](CC(=O)O)C(=O)N[C@@H]1C(=O)NCC(=O)N[C@@H](CCCNC(=O)C(N)CCc2c[nH]c3ccccc23)C(=O)N[C@@H](CC(=O)O)C(=O)N[C@H](C)C(=O)N[C@@H](CC(=O)O)C(=O)NCC(=O)N[C@H](CO)C(=O)N[C@@H]([C@H](C)CC(=O)O)C(=O)N[C@@H](CC(=O)c2ccccc2N)C(=O)O[C@@H]1C (stereo partly specified) [listing 1 of 2 here],Tmax,[3],1 h
same,Vd,[11],0.216 L/kg
same,Cmax,[4],258 µg/mL
same,half-life,[5],2.8 h
same,AUC,[12],936 µg·h/mL
same,clearance,[13],0.883 mL/min/kg
CCCCCCCCCC(=O)N[C@@H](Cc1c[nH]c2ccccc12)C(=O)N[C@H](CC(N)=O)C(=O)N[C@@H](CC(=O)O)C(=O)N[C@@H]1C(=O)NCC(=O)N[C@@H](CCCNC(=O)C(N)CCc2c[nH]c3ccccc23)C(=O)N[C@@H](CC(=O)O)C(=O)N[C@H](C)C(=O)N[C@@H](CC(=O)O)C(=O)NCC(=O)N[C@H](CO)C(=O)N[C@@H]([C@H](C)CC(=O)O)C(=O)N[C@@H](CC(=O)c2ccccc2N)C(=O)O[C@@H]1C (stereo partly specified) [listing 2 of 2 here],MIC,Staphylococcus aureus [1],0.78 µg/mL
same,ED50,Mus musculus,0.15 mg/kg
same,MIC,Staphylococcus aureus [2],0.78 µg/mL
same,MIC,Enterococcus faecium,1.56 µg/mL
same,MIC,Enterococcus faecalis,3.1 µg/mL
CCCCCCCCCC(=O)N[C@@H](Cc1c[nH]c2ccccc12)C(=O)N[C@H](CC(N)=O)C(=O)N[C@@H](CC(=O)O)C(=O)N[C@@H]1C(=O)NCC(=O)N[C@@H](CCCN)C(=O)N[C@@H](CC(=O)O)C(=O)N[C@H](C)C(=O)N[C@@H](CC(=O)O)C(=O)NCC(=O)N[C@H](CO)C(=O)N[C@@H]([C@H](C)CC(=O)O)C(=O)N[C@@H](CC(=O)c2ccccc2N)C(=O)O[C@@H]1C,Tmax,[3],0.5 h
same,MIC,Staphylococcus aureus [1],0.78 µg/mL
same,ED50,Mus musculus,0.22 mg/kg
same,Vd,[11],0.251 L/kg
same,Cmax,[4],214 µg/mL
same,MIC,Staphylococcus aureus [2],0.39 µg/mL
same,MIC,Enterococcus faecium,1.56 µg/mL
same,half-life,[5],1.7 h
same,AUC,[12],489 µg·h/mL
same,clearance,[13],1.7 mL/min/kg
same,MIC,Enterococcus faecalis,1.56 µg/mL
